For 67 compounds, EC50, IC50 and outcome results are on record in PubChem BioAssay AID179 (DTP/NCI, 2004).

Each structure is given as a SMILES string. “And” between values parts separate entries of the source, which are not always exact repeats. Equal entries are not always repeated. The source made the active and inactive calls.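 How the source made its calls: active means compounds giving half or more protection of infected cells from virus-caused growth loss, again on retest; inactive means the rest.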 Where a SMILES comes first, the peptide text is derived from it.

This assay has as its system CEM cells HIV-1 protection, formazan growth assay. In words: NCI AIDS Antiviral Assay. Conditions: for IC50: measured here: growth of uninfected CEM cells. An outline of the steps: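 CEM (human) cells, HIV-1 infected vs uninfected, 5-point dosing, formazan growth read-out. Retest threshold 50% protection.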

One may read the EC50 as the concentration that produces a half-maximal response. One may read the IC50 as the concentration that gives 50% inhibition. Low readings indicate higher potency, high ones lower potency. Consider `CC(=O)Oc1ccc2cc(Oc3ccc(Cl)c(Cl)c3)c(=O)oc2c1`, for which the EC50 is above 200 µM and the IC50 turned out to be 85.1 µM.

On to `O=C(Cc1ccc([N+](=O)[O-])c([N+](=O)[O-])c1CC(=O)C(=O)Nc1cc(Cl)ccc1Cl)C(=O)Nc1cc(Cl)ccc1Cl`, for which the EC50 is above 47.9 µM and the 50% inhibitory concentration (IC50) turned out to be 9.33 µM.

On to `CC(C)(C)[Si](C)(C)OCC1OC(n2ccc(=O)[nH]c2=O)C(O[Si](C)(C)C(C)(C)C)[C@]12O[C@@H]2CO` (stereo not given in full), for which the EC50 is above 200 µM and the half-maximal inhibitory concentration (IC50) was 13.2 µM. On to `CN(C)CCOC1(CC2CCCCC2)CCC(C(C)(C)C)CC1` (stereo not given), for which the EC50 is above 200 µM and the IC50 was found to be 8.13 µM. For `N#CC1(N2CCCC2)CCC2(CC1)OCCO2`, the result was inactive. Turning to `O=C(Oc1ccccc1)C(c1ccccc1)c1ccccc1`, the EC50 is above 102 µM and the IC50 is above 102 µM. For the compound `CC(C)C1OC(=O)/C=C/C=C/C=C/C=C/C=C/CC(O)CC(O)CC(O)CC(O)CC(O)CC(O)CC(O)CC(O)/C=C/C1C` (stereo not given), the EC50 is above 200 µM and the IC50 was above 200 µM. On to `CC(C)CC(NC(=O)C(CCC(=O)O)NC(=O)CNC(=O)CNC(=O)C(CO)NC(=O)C(CC(C)C)NC(=O)C(NC(=O)C(CO)NC(=O)C(C)NC(=O)C(CCCNC(=N)N)NC(=O)C(C)NC(=O)CN)C(C)C)C(=O)NC(CC(=O)O)C(=O)NC(CCCNC(=N)N)C(=O)NC(Cc1c[nH]c2ccccc12)C(=O)NC(Cc1ccc(O)cc1)C(N)=O` (stereo not given) (H-GARASVLSGGELDRWY-NH2; configuration not given here), for which the EC50 is above 145 µM and the IC50 was above 145 µM.

`N#Cc1c(N=C2CCCCC2)c(C(=O)Nc2ccccc2)n2c1CCCC2`: the EC50 was above 50.1 µM and the 50% inhibitory concentration (IC50) is above 50.1 µM. With `COc1ccc(-n2[nH]c(=O)n(C)c2=O)cc1`, the EC50 is above 200 µM and the IC50 was above 200 µM. As to `CC1=NN(c2ccccc2)C(=O)C1C(=O)C(=O)Nc1ccc(C)cc1C` (stereo not given), the result was inactive and the IC50 worked out at 102 µM. Take `COc1cc(OC)nc(-n2c(N)c(C(=O)O)c3ccc([N+](=O)[O-])cc3c2=O)n1`: the EC50 was above 200 µM and the IC50 turned out to be 42.7 µM. The corresponding values for `O=C(/C=C/c1cccc(F)c1)c1ccccc1` are above 31.6 µM and 19.1 µM.

`COC(=O)[C@@H](NC(=O)N(CCC#N)CCNc1ccccc1)C(C)C`: the EC50 is above 200 µM and the IC50 was above 200 µM. With `Cc1c(C)c2ccc(O)cc2[nH]c1=O`, the EC50 was above 200 µM and the concentration for half-maximal inhibition (IC50) turned out to be 182 µM. Turning to `CC(=O)N1C=Cc2c(c(C)c3c([nH]c4ccccc43)c2C)C1`, the EC50 is above 200 µM and the IC50 was found to be 0.158 µM. Regarding `COC(=O)c1cc(C(=CCCO)c2cc(Cl)c(OC)c(C(=O)OC)c2)cc(Cl)c1OC`, the EC50 was above 200 µM and the IC50 amounted to 24.5 µM. `CCCCc1ccc(Nc2nc(=S)c3[nH]cnc3[nH]2)cc1`: the EC50 is above 200 µM and the IC50 amounted to 44.7 µM. Take `O=Cc1c2c(cc3c1CC1(C3)Cc3cc4c(c(C=O)c3C1)CCC4)CCC2`: the EC50 is above 200 µM and the IC50 worked out at 34.7 µM.

As for `Cc1nn(C(=O)CC(=O)Nc2ccccc2Cl)c(C)c1N=Nc1ccccc1Cl`, the outcome was inactive.

Take `C=CC1(C)CCC(C(C)C(=O)C(C=C(C)C)OC(C)=O)C12C(=O)Oc1ccccc1C2=O` (stereo not given): the EC50 is above 30.9 µM and the IC50 is 29.5 µM.

With `CSc1n[nH]c(N)c1C(=O)Nc1ccc(C)cc1`, the EC50 is above 200 µM and the IC50 amounted to 95.5 µM. The corresponding values for `CCCCOC(=O)C1OC12CCCCC2` (stereo not given) are above 200 µM and 151 µM.

`Nc1ccc2cc(S(=O)(=O)O)cc(O)c2c1N=Nc1ccc(NC(=O)Nc2ccc(N=Nc3c(N)ccc4cc(S(=O)(=O)O)cc(O)c34)c(S(=O)(=O)O)c2)cc1S(=O)(=O)O` returned an EC50 of 55 µM and an IC50 above 200 µM. The corresponding values for `O=C1NP23(OCCO2)Oc2ccccc2C3(C(F)(F)F)O1` (stereo not given) are above 776 µM and 389 µM.

`S=c1cc(S)sc2c1c(=S)sc1nc3ccccn3c(=S)c12`: the EC50 was above 9.55 µM and the IC50 is above 9.55 µM.

As to `Cc1cc(C)nc(NS(=O)(=O)c2ccc(Nc3c4ccccc4nc4ncccc34)cc2)n1`, the result was inactive.

On to `COC(=O)[C@@H]1CN(C(=O)CCc2ccccc2)C(=O)N1`, for which the EC50 was above 200 µM and the IC50 is above 200 µM. With `CC(C)(C)c1cc(C(P(=O)(c2ccccc2)c2ccccc2)P(=O)(c2ccccc2)c2ccccc2)cc(C(C)(C)C)c1O`, the EC50 is above 200 µM and the IC50 was 3.24 µM. The corresponding values for `Cc1ccc(S(=O)(=O)N/N=C2/CC3CCC4CC2CC34)cc1` (stereo not given) are above 200 µM and 79.4 µM. The matching figures for `CN(C(=O)c1ccco1)C(=S)N1CCN(c2ccccc2)CC1`: above 110 µM and 30.2 µM. The corresponding values for `O=C(O)CN1CCN(CC(=O)O)CCN(CC(=O)O)CC1` are above 100 µM and 1.82 µM.

Turning to `COc1ccc(/C=c2\[nH]c3nc(=O)c(N4CCCCC4)c(N)n3c2=O)cc1`, the EC50 was above 200 µM and the IC50 stood at 120 µM.

Consider `COc1cc(/C=C2\CCc3ccccc3C2=O)cc(OC)c1OC`, for which the EC50 is above 30.9 µM and the IC50 turned out to be 9.77 µM.

Turning to `O=C1c2ccccc2C(=O)N1CCn1ccc(NC(c2ccccc2)(c2ccccc2)c2ccccc2)nc1=O`, the EC50 is above 13.8 µM and the IC50 is above 13.8 µM. For `CCC(=O)c1c(NOC2OCC(OC(C)=O)C(OC(C)=O)C2OC(C)=O)nc(OC)n(C)c1=O` (stereo not given), the EC50 was above 53.7 µM and the half-inhibitory concentration (IC50) was above 53.7 µM. `CCC(=O)c1c(NOC2OC(COC(C)=O)C(OC(C)=O)C(OC(C)=O)C2OC(C)=O)nc(OC)n(C)c1=O` (stereo not given): the EC50 was above 46.8 µM and the IC50 is above 46.8 µM.

Take `COc1ccc(/C(=N\N=C(N)N)C(c2ccc(OC)cc2)C2OC(=O)c3ccccc32)cc1` (stereo not given): the EC50 is above 3.24 µM and the half-inhibitory concentration (IC50) is above 3.24 µM.

Turning to `COc1ccc(C(C)NNC(=O)c2ccncc2)cc1F` (stereo not given), the EC50 is above 200 µM and the IC50 amounted to 112 µM. In the case of `Cc1ccc(S(=O)(=O)N/N=C(/c2nc3ccc([N+](=O)[O-])cc3[nH]c2=O)C(O)c2ccc(C(O)/C(=N\NS(=O)(=O)c3ccc(C)cc3)c3nc4ccc([N+](=O)[O-])cc4[nH]c3=O)cc2)cc1` (stereo not given), the EC50 is above 39.8 µM and the half-maximal inhibitory concentration (IC50) is above 39.8 µM. Consider `CCN(CC)CCOC(=O)c1[nH]c(=O)[nH]c(=O)c1N`, for which the EC50 is above 200 µM and the IC50 was above 200 µM. With `Nc1[nH]nc2nc3ccc(C(F)(F)F)cc3nc12`, the EC50 is above 200 µM and the 50% inhibitory concentration (IC50) turned out to be 29.5 µM. The matching figures for `C/C(=N\NC(=O)N/N=C(\C)c1ccccn1)c1ccccn1`: above 2 µM and 0.0339 µM. Take `Cc1cc(C)c2c(c1C)CN1CN2Cc2c(C)c(C)cc(C)c21`: the result was inactive. Take `CN1C(=O)N/C(=C\c2ccc(S(=O)(=O)N/N=C\C(O)C(O)C(O)C(O)CO)cc2)C1=O` (stereo not given): the EC50 is above 200 µM and the IC50 is above 200 µM.

`CCOC(=O)c1nnsc1NC(=O)Nc1ccc(Cc2ccc(NC(=O)Nc3snnc3C(=O)OCC)cc2)cc1`: the EC50 was above 200 µM and the 50% inhibitory concentration (IC50) is above 200 µM.

Take `COC(=O)c1cc(C(c2cc(C(=O)OC)c(O)cc2C)C(Cl)Cl)c(C)cc1O`: the EC50 was above 91.2 µM and the IC50 turned out to be 6.46 µM. Regarding `NC1(C(=O)O)CSSC1`, the IC50 was 10.7 µM and 8.71 µM.

As to `O=C(O)CSc1n[nH]c(-c2ccc(O)cc2)n1`, the EC50 was above 1000 µM and the IC50 was found to be 977 µM.

In the case of `CC(C)(C)CC1=CC(=C2C=C(CC(C)(C)C)C(=O)C(CC(C)(C)C)=C2)C=C(CC(C)(C)C)C1=O`, the EC50 is above 15.5 µM and the IC50 was above 15.5 µM. Regarding `O=C(CNC1=NCCN1)Nc1ccc(NC(=O)c2ccc(C(=O)Nc3ccc(NC(=O)CNC4=NCCN4)cc3)cc2)cc1`, the EC50 is 24 µM and the half-maximal inhibitory concentration (IC50) was above 200 µM.

Consider `COc1cc2c(cc1O)C1CC(CC3CCCCN31)OC(=O)/C=C\c1ccc(O)c-2c1` (stereo not given), for which the EC50 is above 200 µM and the IC50 is 45.7 µM. The corresponding values for `CC(C(O)c1ccccc1)N(C)/N=N/c1nc2c([nH]1)c(=O)n(C)c(=O)n2C` (stereo not given) are above 200 µM and 110 µM. As to `COC(OC)c1cc2c(cc1C(=O)[C@@]13CCC[C@@H]1NC(=O)O3)OCO2`, the outcome was inactive. Consider `N#Cc1cc2c(n(C3OC(CO)C(O)C(O)C3O)c1=S)CCCCC2` (stereo not given), for which the EC50 was above 200 µM and the IC50 is above 200 µM.

Take `COc1cc2c(c(OC3OC(CO)C(O)C(O)C3O)c1)C(=O)CC(c1ccc(O)cc1)O2` (stereo not given): the EC50 is above 200 µM and the IC50 stood at 195 µM. As for `CCOC1CSc2ccccc2C(c2ccccc2)=N1` (stereo not given), the EC50 is 195 µM and the IC50 was above 200 µM. The corresponding values for `COC(=O)N/N=C(\c1ccccc1)c1ccc(OC)cc1` are above 200 µM and 112 µM. As to `CC(C)COP(=O)(OCC(C)C)C(NS(=O)(=O)c1ccccc1)(C(F)(F)F)C(F)(F)F`, the result was inactive. As to `N#C/C(=C\n1c(=S)[nH]c2ccc([N+](=O)[O-])cc21)c1nc2ccccc2s1`, the EC50 is above 200 µM and the IC50 turned out to be 102 µM.

Regarding `Brc1c2c(c(Br)c3nsnc13)N=S=N2`, the result was inactive. In the case of `C=C(C)C(=O)O[C@H]1[C@H]2[C@H](OC(=O)[C@H]2C)[C@H](O)[C@@H](C)[C@@H]2C=CC(=O)[C@]21C`, the EC50 was above 363 µM and the IC50 worked out at 1.91 µM.

Turning to `Cn1c(=O)c2c(=O)cc(N)[nH]c2n(C)c1=O`, the result was inactive. Take `Cc1c(C)c2c(c(N)c1C#N)C(=O)N(Nc1ccccc1)C2=O`: the EC50 was above 200 µM and the IC50 was 79.4 µM. The corresponding values for `CCC(C)N1CN(c2ccccc2)C2(CCN(CCCC3(c4ccc(F)cc4)OCCO3)CC2)C1=O` (stereo not given) are above 200 µM and 6.92 µM. The matching figures for `Cc1ccc2cc(NC(=O)CBr)c3ccc(C)nc3c2n1`: above 2 µM and 0.955 µM. The corresponding values for `O=C1OC(c2cccc3ccc(Br)cc23)c2ccccc21` (stereo not given) are 27.5 µM and 52.5 µM.
